In assay [1] the test system is Dermatophytes, Hyphomycetes and yeasts. The experiment in a line: Antimycotic in vitro activity, serial dilution test (overall statement). Type of assay: cell-based. To be noted: in words. As to the method: (§1) The in vitro tests were carried out in a serial dilution test using bacterial inocula of, on average, 5×10^3 to 10^4 bacteria/ml of substrate. Nutrients used were (a) for Dermatophytes and Hyphomycetes: Sabouraud's test medium (b) for yeasts: meat extract/dextrose broth. The incubation temperature was 28° C. to 37° C., and the incubation period was 24 to 96 hours for yeasts and 96 hours for Dermatophytes and Hyphomycetes.

A further assay has as its system Torulopsis glabrata. Nature of the assay: Antimycotic in vitro activity, serial dilution test (MIC). The assay is classed as cell-based. The conditions noted are these: Nakaseomyces glabratus, meat extract/dextrose broth, 28-37° C., 24 to 96 hours, read-out: MIC values in μg/ml of nutrient medium. Here is the method:
as §1

The subject of another assay is Candida albicans. The assay is described as above. The assay is classed as cell-based. The conditions noted are these: meat extract/dextrose broth, 28-37° C., 24 to 96 hours, read-out: MIC values in μg/ml of nutrient medium. As to the method:
as §1

Another assay concerns Aspergillus fumigatus. Described as above. Type of assay: cell-based. The conditions noted are these: Sabouraud's test medium, 28-37° C., 96 hours, read-out: MIC values in μg/ml of nutrient medium. As to the method:
as §1

Another assay has as its system Trichophyton mentagr. The description is as above. Type of assay: cell-based, Trichophyton mentagrophytes. The conditions noted are these: Sabouraud's test medium, 28-37° C., 96 hours, read-out: MIC values in μg/ml of nutrient medium. Here is the method:
as §1

In the next assay the test system is Microsporum canis. Described as above. The assay is classed as cell-based. To be noted: Sabouraud's test medium, 28-37° C., 96 hours, read-out: MIC values in μg/ml of nutrient medium. Here is the method:
as §1

A further assay has as its system Candida. The experiment in a line: Antimycotic in vivo activity (oral) in mouse candidiasis. To be noted: in words, 25-100 mg/kg. On the set-up: species or system Mice of the SPF-CF1 type. As to the method: Mice of the SPF-CF1 type are intravenously inoculated with 1-2×10^6 logarithmically growing Candida cells, which have been suspended in physical logical saline solution. One hour before and seven hours after infection, the animals are orally treated with 25-100 mg/kg of body weight of the preparation in each case. Result Untreated animals died 3 to 6 days post infection. The survival rate on the 6th day post infection was about 5% in untreated control animals.

The text below walks through data of patent US4904682A, “Treating mycoses with triazolylalkanols” (Bayer Aktiengesellschaft, priority 1987, dated 1990).

≈ marks a conversion by molar mass, not a printed value.

Consider `CC(C)(C#N)C(O)(CSc1ccc(Cl)cc1)Cn1cncn1` (stereo not drawn) [Compound 5], for which the “antimycotic activity in vitro” value in assay [1] is reported as “good antimycotic activity”. The MIC is 4 µg/mL (≈ 11.9 µM) in the assay with Torulopsis glabrata, 4 µg/mL (≈ 11.9 µM) in the assay with Candida albicans, 8 µg/mL (≈ 23.7 µM) in the assay with Aspergillus fumigatus and 8 µg/mL (≈ 23.7 µM) in the assay on Trichophyton mentagr..

`CC(C)(C#N)C(O)(CCc1ccc(Cl)cc1)Cn1cncn1` (stereo not drawn) [Compound 2]: the “antimycotic activity in vitro” value in assay [1] is reported as “good antimycotic activity”. Moreover, the MIC is 16 µg/mL (≈ 50.2 µM) with Torulopsis glabrata; 16 µg/mL (≈ 50.2 µM) in the assay on Candida albicans; 16 µg/mL (≈ 50.2 µM) with Microsporum canis; 16 µg/mL (≈ 50.2 µM) in the assay on Aspergillus fumigatus; less than 1 µg/mL with Trichophyton mentagr..

On to `CC(C)(C#N)C(O)(CSc1ccc(Br)cc1)Cn1cncn1` (stereo not drawn) [Compound 4], for which the “antimycotic activity in vitro” value in assay [1] is recorded as “good antimycotic activity”. Also, the MIC in the assay on Torulopsis glabrata was 8 µg/mL (≈ 21 µM); in the assay with Candida albicans, 8 µg/mL (≈ 21 µM); in the assay with Microsporum canis, 16 µg/mL (≈ 42 µM); with Aspergillus fumigatus, 4 µg/mL (≈ 10.5 µM); with Trichophyton mentagr. it was less than 1 µg/mL.

Take `CC(C)(C#N)C(O)(COc1ccc(-c2ccccc2)cc1)Cn1cncn1` (stereo not drawn) [Compound 7]: the “antimycotic activity in vitro” value in assay [1] is given as “good antimycotic activity”. The MIC in the assay with Torulopsis glabrata was 16 µg/mL (≈ 44.1 µM); in the assay with Candida albicans, 2 µg/mL (≈ 5.52 µM); in the assay on Microsporum canis, less than 1 µg/mL; in the assay on Aspergillus fumigatus, 2 µg/mL (≈ 5.52 µM); in the assay on Trichophyton mentagr., less than 1 µg/mL.

As for `CC(C)(C#N)C(O)(COc1ccc(Cl)cc1)Cn1cncn1` (stereo not drawn) [Compound 8], in the assay on Candida, the “action in mouse candidiasis compared with compounds (A) and (B)” value is “better action than the compounds (A) and (B)”.
